Measured values: ChEMBL document CHEMBL5226282, “TLR2 Agonistic Small Molecules: Detailed Structure-Activity Relationship, Applications, and Future Prospects” (J Med Chem, 2021)
*1 amine or outer side, *2 acyl side, *3 side chain or, on linkers, in order; H or OH if unused. Where a SMILES comes first, the peptide text is derived from it. [ ]: non-standard residue; d: D form. The star is where a group is joined. X1 = CCCCCCCCCCCCCCCC(=O)OCC(CCCC(N[*:1])C(=O)[*:2])OC(=O)CCCCCCCCCCCCCCC; X2 = CCCCCCCCCCCCCCCC(=O)OCC(C*)OC(=O)CCCCCCCCCCCCCCC; Palmitoyl = CCCCCCCCCCCCCCCC(=O)*

Assays:
Toll-like receptor 2 [1] = molecular target: T1, Toll-like receptor 2 (Homo sapiens, UniProt O60603); test: Binding affinity to TLR2 (unknown origin)
Toll-like receptor 2 [2] = molecular target: T1, Toll-like receptor 2; test: Agonist activity at TLR2 (unknown origin)
Toll-like receptor 2 [3] = molecular target: T1, Toll-like receptor 2; test: Agonist activity at human TLR2 transfected in HEK293 cells relative to control; format: cell-based
Toll-like receptor 2 [4] = molecular target: T1, Toll-like receptor 2; test: Agonist activity at human TLR2 transfected in HEK293 cells; format: cell-based
Toll-like receptor 1/2 [5] = molecular target: T2, Toll-like receptor 1/2 (Homo sapiens, UniProt O60603+Q15399); test: Agonist activity at TLR2/TLR1 (unknown origin); format: protein-complex assay
Toll-like receptor 1/2 [6] = molecular target: T2, Toll-like receptor 1/2; test: Agonist activity at TLR2/TLR1 (unknown origin) assessed as induction of IL-8 production relative to control; format: protein-complex assay; details: filed as agonist
TLR2/TLR6 (Homo sapiens) = TLR2/TLR6 (Homo sapiens) (UniProt O60603+Q9Y2C9); test: Agonist activity at TLR2/TLR6 (unknown origin) assessed as induction of IL-8 production relative to control; format: protein-complex assay

T1 sequence (O60603 whole entry): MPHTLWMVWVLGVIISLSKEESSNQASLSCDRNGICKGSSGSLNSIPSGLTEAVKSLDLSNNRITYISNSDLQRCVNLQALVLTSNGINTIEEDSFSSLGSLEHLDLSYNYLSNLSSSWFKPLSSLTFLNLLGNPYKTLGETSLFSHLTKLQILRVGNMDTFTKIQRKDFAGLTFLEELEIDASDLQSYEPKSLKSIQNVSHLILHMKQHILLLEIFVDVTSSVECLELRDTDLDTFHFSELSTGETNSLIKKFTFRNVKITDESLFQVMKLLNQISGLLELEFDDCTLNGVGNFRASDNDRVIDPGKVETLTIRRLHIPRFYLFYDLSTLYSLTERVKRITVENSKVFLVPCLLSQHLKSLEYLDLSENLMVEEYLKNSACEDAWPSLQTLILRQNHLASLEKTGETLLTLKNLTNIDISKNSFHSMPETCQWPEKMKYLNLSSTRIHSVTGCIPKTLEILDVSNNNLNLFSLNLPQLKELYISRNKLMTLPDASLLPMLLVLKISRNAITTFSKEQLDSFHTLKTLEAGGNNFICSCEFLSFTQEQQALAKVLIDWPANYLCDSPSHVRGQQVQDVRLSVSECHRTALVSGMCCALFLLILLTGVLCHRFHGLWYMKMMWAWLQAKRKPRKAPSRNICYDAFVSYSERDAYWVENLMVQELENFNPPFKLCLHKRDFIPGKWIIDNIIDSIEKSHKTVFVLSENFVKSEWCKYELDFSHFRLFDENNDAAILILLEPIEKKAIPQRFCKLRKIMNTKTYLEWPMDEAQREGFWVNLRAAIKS
T2 sequence (O60603 whole entry): as above
T2 sequence (Q15399 whole entry): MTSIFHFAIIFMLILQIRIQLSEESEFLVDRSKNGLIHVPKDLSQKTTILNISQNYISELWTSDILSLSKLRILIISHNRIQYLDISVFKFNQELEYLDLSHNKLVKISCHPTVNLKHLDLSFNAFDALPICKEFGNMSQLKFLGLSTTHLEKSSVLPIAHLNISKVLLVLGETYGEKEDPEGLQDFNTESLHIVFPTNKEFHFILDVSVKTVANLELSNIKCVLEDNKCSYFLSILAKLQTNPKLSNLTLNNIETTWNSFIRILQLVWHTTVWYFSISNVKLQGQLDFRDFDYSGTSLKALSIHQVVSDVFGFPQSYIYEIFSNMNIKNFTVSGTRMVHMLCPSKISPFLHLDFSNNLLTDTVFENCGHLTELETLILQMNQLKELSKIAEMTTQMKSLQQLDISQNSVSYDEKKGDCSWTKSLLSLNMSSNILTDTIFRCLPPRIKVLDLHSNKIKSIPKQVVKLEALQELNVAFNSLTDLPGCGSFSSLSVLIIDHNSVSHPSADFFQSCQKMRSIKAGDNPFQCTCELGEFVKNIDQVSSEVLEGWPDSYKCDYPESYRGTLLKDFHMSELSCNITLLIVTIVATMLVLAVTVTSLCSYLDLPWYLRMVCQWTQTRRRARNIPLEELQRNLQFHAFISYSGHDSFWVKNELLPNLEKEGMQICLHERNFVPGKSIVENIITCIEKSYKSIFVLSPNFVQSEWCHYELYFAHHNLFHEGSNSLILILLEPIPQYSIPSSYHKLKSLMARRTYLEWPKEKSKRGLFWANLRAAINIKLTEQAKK

| EC50 (Toll-like receptor 2 [3]) | EC50 (Toll-like receptor 2 [4]) | SMILES | also measured |
| --- | --- | --- | --- |
| – | – | CCCCCCCCCCCCCCCC(=O)OCCSC[C@H](NC(=O)COCC(=O)NCCCOCCOCCOCCCNC)C(=O)NCC(=O)N[C@H](CO)C(=O)COCC(=O)NCCCOCCOCCOCCCN | Ki (Toll-like receptor 2 [1]): 22 nM; EC50 (Toll-like receptor 2 [2]): 674 nM |
| 830 nM | 830 nM | CCCCCCCCCCNC(=O)OC[C@H](CSC[C@@H](NC(C)=O)C(=O)NCCOCCOCCOCCP(=O)(O)O)OC(=O)NCCCCCCCCCC | – |
| 820 nM | 820 nM | CCCCCCCCCCNC(=O)OC[C@H](CSC[C@@H](N)C(=O)NCCOCCOCCOCCP(=O)(O)O)OC(=O)NCCCCCCCCCC | – |
| 6.3 nM | 6.3 nM | CCCCCCCCCCCCCC(=O)OC[C@H](CSC[C@@H](N)C(=O)NCCOCCOCCOCCP(=O)(O)O)OC(=O)CCCCCCCCCCCCC | – |
| 2640 nM | 2640 nM | CCCCCCCCCCCCCCCC(=O)N[C@H](CSC[C@@H](COC(=O)NCCCCCCCCCC)OC(=O)NCCCCCCCCCC)C(=O)NCCOCCOCCOCCP(=O)(O)O | – |
| 3450 nM | 3450 nM | CCCCCCCCCCCCCCCCOC[C@H](CSC[C@@H](N)C(=O)NCCOCCOCCOCCP(=O)(O)O)OCCCCCCCCCCCCCCCC | – |
| 7030 nM | 7030 nM | CCCCCCCCNC(=O)OC[C@H](CSC[C@@H](N)C(=O)NCCOCCOCCOCCP(=O)(O)O)OC(=O)NCCCCCCCC | – |
| – | – | CNc1ccc([N+](=O)[O-])cc1-n1cnc(-c2ccc([N+](=O)[O-])cc2)c1 | EC50 (Toll-like receptor 1/2 [5]): 2510 nM |
| 3040 nM | 3040 nM | CCCCCCCC(=O)OC[C@H](CSC[C@@H](N)C(=O)NCCOCCOCCOCCP(=O)(O)O)OC(=O)CCCCCCC | – |
| > 100000 nM | > 100000 nM | CCCCCCCCCCCC[C@H](CSC[C@@H](N)C(=O)NCCOCCOCCOCCP(=O)(O)O)OC(=O)NCCCCCCCCCCC | – |
| – | – | CNc1ccc([N+](=O)[O-])cc1-n1cnc(-c2ccc(C(F)(F)F)cc2)c1 | EC50 (Toll-like receptor 1/2 [5]): 5200 nM |
| – | – | CCCCCCCCCCCCCCCC(=O)N[C@@H](CSCC(COC(=O)CCCCCCCCCCCCCCC)OC(=O)CCCCCCCCCCCCCCC)C(=O)N[C@@H](CCC(N)=O)C(=O)N1CCC[C@H]1C(=O)N[C@@H](CC(=O)O)C(=O)N[C@@H](CCCNC(=N)N)C(=O)N[C@@H](Cc1ccc(O)cc1)C(N)=O (stereo partly specified) (Palmitoyl-C(X2)QPDRY-NH2) | Activity (Toll-like receptor 1/2 [6]): 93% |
| – | – | CCCCCCCCCCCCCCCC(=O)OCCSC[C@H](NC(=O)COCC(=O)NCCCOCCOCCOCCCNc1ccc(C2=C(/C=C/C3=[N+](CC)c4ccccc4C3(C)C)CCC/C2=C\C=C2\N(CCC)c3ccccc3C2(C)C)cc1)C(=O)NCC(=O)N[C@H](CO)C(=O)COCC(=O)NCCCOCCOCCOCCCN | Ki (Toll-like receptor 2 [1]): 16 nM; IC50 (Toll-like receptor 2 [2]): 361 nM |
| 830 nM | 830 nM | CCCCCCCCCCNC(=O)OC[C@H](CSC[C@@H](NC(=O)CCCCC)C(=O)NCCOCCOCCOCCP(=O)(O)O)OC(=O)NCCCCCCCCCC | – |
| – | – | CCCCCCCCCCCCCCCC(=O)NC(CCCC(COC(=O)CCCCCCCCCCCCCCC)OC(=O)CCCCCCCCCCCCCCC)C(=O)N[C@@H](CO)C(=O)N[C@@H](CO)C(=O)N[C@@H](CC(N)=O)C(=O)N[C@@H](C)C(=O)N[C@@H](CO)C(=O)N[C@@H](CCCCN)C(=O)N[C@@H](CCCCN)C(=O)N[C@@H](CCCCN)C(=O)N[C@@H](CCCCN)C(=O)O (stereo partly specified) (Palmitoyl-[X1]SSNASKKKK-OH) | Activity (TLR2/TLR6 (Homo sapiens)): 23% |
| 550 nM | 550 nM | CCCCCCCCCCCCOC[C@H](CSC[C@@H](N)C(=O)NCCOCCOCCOCCP(=O)(O)O)OCCCCCCCCCCCC | – |
| – | – | CCCCCCCCCCCCCCCC(=O)OCC[C@H](CS[C@H](NC(C)=O)C(=O)N[C@@H](CO)C(=O)N[C@@H](CCCCN)C(=O)N[C@@H](CCCCN)C(=O)N[C@@H](CCCCN)C(=O)N[C@@H](CCCCN)C(=O)N[C@@H](CO)C(=O)N[C@@H](CC(C)C)C(=O)N[C@@H](CC(C)C)C(=O)N[C@@H](CCSC)C(=O)N[C@@H](Cc1c[nH]c2ccccc12)C(=O)N[C@H](C(=O)N[C@H](C(=O)N[C@@H](CCC(N)=O)C(=O)N[C@H](C(=O)O)C(C)C)[C@@H](C)O)[C@@H](C)CC)OC(=O)CCCCCCCCCCCCCCC | EC50 (Toll-like receptor 2 [2]): 1160 nM |
| – | – | CCCCCCCCCCCCCCCC(=O)OCC[C@@H](CS[C@H](NC(C)=O)C(=O)N[C@@H](CO)C(=O)N[C@@H](CCCCN)C(=O)N[C@@H](CCCCN)C(=O)N[C@@H](CCCCN)C(=O)N[C@@H](CCCCN)C(=O)N[C@@H](CO)C(=O)N[C@@H](CC(C)C)C(=O)N[C@@H](CC(C)C)C(=O)N[C@@H](CCSC)C(=O)N[C@@H](Cc1c[nH]c2ccccc12)C(=O)N[C@H](C(=O)N[C@H](C(=O)N[C@@H](CCC(N)=O)C(=O)N[C@H](C(=O)O)C(C)C)[C@@H](C)O)[C@@H](C)CC)OC(=O)CCCCCCCCCCCCCCC | EC50 (Toll-like receptor 2 [2]): 17400 nM |
| – | – | CCCCCCCCCCCCCCCC(=O)OC[C@H](CSC[C@H](NC(=O)COCC(=O)NCCCOCCOCCOCCCNC(C)=O)C(=O)NCC(=O)N[C@H](CO)C(=O)COCC(=O)NCCCOCCOCCOCCCN)OC(=O)CCCCCCCCCCCCCCC | Ki (Toll-like receptor 2 [1]): 91 nM; EC50 (Toll-like receptor 2 [2]): 20 nM |
| – | – | CCCCCCCCCCCCCCCC(=O)N[C@@H](CSCC(COC(=O)CCCCCCCCCCCCCCC)OC(=O)CCCCCCCCCCCCCCC)C(=O)N[C@@H](CCCNC(=N)N)C(=O)N1CCC[C@H]1C(=O)N[C@@H](CC(=O)O)C(=O)N[C@@H](CCCNC(=N)N)C(=O)N[C@@H](Cc1ccc(O)cc1)C(N)=O (stereo partly specified) (Palmitoyl-C(X2)RPDRY-NH2) | Activity (Toll-like receptor 1/2 [6]): 112% |
| – | – | CCCCCCCCCCCCCCCC(=O)OCCCCC[C@H](CS[C@H](N)C(=O)N[C@@H](CO)C(=O)N[C@@H](CCCCN)C(=O)N[C@@H](CCCCN)C(=O)N[C@@H](CCCCN)C(=O)N[C@@H](CCCCN)C(=O)N[C@@H](CO)C(=O)N[C@@H](CC(C)C)C(=O)N[C@@H](CC(C)C)C(=O)N[C@@H](CCSC)C(=O)N[C@@H](Cc1c[nH]c2ccccc12)C(=O)N[C@H](C(=O)N[C@H](C(=O)N[C@@H](CCC(N)=O)C(=O)N[C@H](C(=O)O)C(C)C)[C@@H](C)O)[C@@H](C)CC)OC(=O)CCCCCCCCCCCCCCC | EC50 (Toll-like receptor 2 [2]): 4440 nM |

| SMILES | EC50 (Toll-like receptor 2 [3]) | EC50 (Toll-like receptor 2 [4]) | also measured |
| --- | --- | --- | --- |
| CCCCCCCCCCCCCCCC(=O)N[C@H](CSC[C@@H](COC(=O)CCCCCCCCCCC)OC(=O)CCCCCCCCCCC)C(=O)NCCOCCOCCOCCP(=O)(O)O | > 100000 nM | > 100000 nM | – |
